Data taken from ChEMBL document CHEMBL1127434, “Discovery of nanomolar ligands for 7-transmembrane G-protein-coupled receptors from a diverse N-(substituted)glycine peptoid library” (J Med Chem, 1994).
One block for each molecule: values may come before it.

Legend:
[1] = molecular target: Mu-type opioid receptor (Rattus norvegicus, UniProt P33535); test: Compound was evaluated for binding affinity towards mu-specific opiate receptor from rat brain membrane using [3H]DAMGO
[2] = molecular target: T1, Adrenergic receptor alpha-1 (Rattus norvegicus, UniProt P15823+P23944+P43140); test: Compound was evaluated for its binding affinity against alfa1 adrenergic receptors.; type: protein assay
T1 sequence (P15823 whole entry): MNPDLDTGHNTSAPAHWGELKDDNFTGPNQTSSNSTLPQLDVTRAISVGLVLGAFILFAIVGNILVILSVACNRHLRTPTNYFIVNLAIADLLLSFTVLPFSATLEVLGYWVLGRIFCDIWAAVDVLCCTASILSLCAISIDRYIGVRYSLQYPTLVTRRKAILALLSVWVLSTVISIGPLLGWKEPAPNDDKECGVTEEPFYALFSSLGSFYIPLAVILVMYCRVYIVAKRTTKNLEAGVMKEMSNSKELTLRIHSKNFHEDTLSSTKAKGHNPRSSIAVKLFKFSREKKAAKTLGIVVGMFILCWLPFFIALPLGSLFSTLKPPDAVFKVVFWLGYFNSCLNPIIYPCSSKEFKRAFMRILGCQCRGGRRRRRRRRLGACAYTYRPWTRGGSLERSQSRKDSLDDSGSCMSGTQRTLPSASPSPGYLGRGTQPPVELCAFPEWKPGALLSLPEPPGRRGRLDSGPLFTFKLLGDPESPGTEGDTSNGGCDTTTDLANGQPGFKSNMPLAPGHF
T1 sequence (P23944 whole entry): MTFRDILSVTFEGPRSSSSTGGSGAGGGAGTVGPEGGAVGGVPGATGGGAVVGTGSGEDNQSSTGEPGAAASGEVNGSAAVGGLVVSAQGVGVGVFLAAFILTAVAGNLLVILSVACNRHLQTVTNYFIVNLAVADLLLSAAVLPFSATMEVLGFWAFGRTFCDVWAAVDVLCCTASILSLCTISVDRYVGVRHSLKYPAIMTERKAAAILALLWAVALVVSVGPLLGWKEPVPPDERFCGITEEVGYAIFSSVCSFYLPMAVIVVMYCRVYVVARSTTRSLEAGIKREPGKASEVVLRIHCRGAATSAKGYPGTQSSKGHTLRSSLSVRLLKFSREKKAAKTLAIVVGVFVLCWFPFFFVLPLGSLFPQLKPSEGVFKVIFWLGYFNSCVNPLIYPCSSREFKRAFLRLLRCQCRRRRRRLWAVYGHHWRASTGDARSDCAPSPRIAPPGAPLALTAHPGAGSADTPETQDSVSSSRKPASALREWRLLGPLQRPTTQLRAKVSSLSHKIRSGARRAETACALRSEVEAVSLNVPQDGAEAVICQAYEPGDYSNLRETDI
T1 sequence (P43140 whole entry): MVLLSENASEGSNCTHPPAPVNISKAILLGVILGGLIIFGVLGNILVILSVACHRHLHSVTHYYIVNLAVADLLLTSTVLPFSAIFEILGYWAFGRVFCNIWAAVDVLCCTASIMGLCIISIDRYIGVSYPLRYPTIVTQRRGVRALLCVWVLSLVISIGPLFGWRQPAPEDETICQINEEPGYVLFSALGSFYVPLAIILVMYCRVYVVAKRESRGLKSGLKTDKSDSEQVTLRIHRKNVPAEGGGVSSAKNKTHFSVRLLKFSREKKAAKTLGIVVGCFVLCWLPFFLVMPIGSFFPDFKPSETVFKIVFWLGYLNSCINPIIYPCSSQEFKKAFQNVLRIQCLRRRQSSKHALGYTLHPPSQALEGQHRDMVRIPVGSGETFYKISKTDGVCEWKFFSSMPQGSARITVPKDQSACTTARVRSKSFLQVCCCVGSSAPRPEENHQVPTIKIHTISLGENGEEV

[3] = molecular target: T1, Adrenergic receptor alpha-1
Description: Compound was evaluated for binding affinity towards alpha-1 adrenergic receptors from combinatorial peptoid library

[4] = molecular target: T1, Adrenergic receptor alpha-1; test: Compound was evaluated for its binding affinity against alpha-1 adrenergic receptors; type: protein assay

Chain of Mu-type opioid receptor (P33535 whole entry): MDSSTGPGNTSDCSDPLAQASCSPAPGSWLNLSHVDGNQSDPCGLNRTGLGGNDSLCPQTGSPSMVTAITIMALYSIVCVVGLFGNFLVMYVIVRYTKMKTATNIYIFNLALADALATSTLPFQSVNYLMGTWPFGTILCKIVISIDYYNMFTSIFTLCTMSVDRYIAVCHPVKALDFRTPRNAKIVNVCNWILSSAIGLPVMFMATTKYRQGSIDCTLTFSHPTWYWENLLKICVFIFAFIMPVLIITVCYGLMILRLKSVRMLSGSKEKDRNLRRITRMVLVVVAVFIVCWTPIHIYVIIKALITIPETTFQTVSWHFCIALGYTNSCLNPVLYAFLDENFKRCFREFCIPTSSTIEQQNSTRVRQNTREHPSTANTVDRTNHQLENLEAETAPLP

Compound: COc1ccc(CN(CC(=O)N(CCc2ccc(O)cc2)CC(N)=O)C(=O)CNCC(c2ccccc2)c2ccccc2)cc1OC
Ki [1]: 31 nM

Compound: CCCCCN(CC(=O)N(CCc1ccc(O)cc1)CC(N)=O)C(=O)CNCC(c1ccccc1)c1ccccc1
Ki [1]: 46 nM

Compound: NC(=O)CN(CCc1ccc(O)cc1)C(=O)CN(Cc1ccc2c(c1)OCO2)C(=O)CNCC(c1ccccc1)c1ccccc1
Ki [1]: 6 nM

Compound: NC(=O)CN(C(=O)CN(C(=O)CNCCc1ccc(O)cc1)c1ccc(-c2ccccc2)cc1)c1ccc(-c2ccccc2)cc1
Ki [4]: 310 nM

Continued, values first:

Ki [2]: 5 nM
Compound: NC(=O)CN(CCc1ccccc1)C(=O)CN(C(=O)CNCCc1ccc(O)cc1)c1ccc(-c2ccccc2)cc1

Ki [3]: 4 nM
Compound: NC(=O)CN(CCc1ccccc1)C(=O)CN(C(=O)CNCCc1ccccc1)c1ccc(-c2ccccc2)cc1

Ki [4]: 140 nM
Compound: NC(=O)CN(CCc1ccccc1)C(=O)CN(C(=O)CNCCc1ccc(O)cc1)c1ccc(Oc2ccccc2)cc1
